Results published in patent US6245791A (Aventis Pharma S.A., priority 1998, dated 2001).

Tested on: glutamate uptake in synaptosomes of rat cerebellum
Protocol: The increase in glutamate uptake is evaluated in a suspension of synaptosomes prepared from rat cerebellar cells.
The synaptosomes were prepared according to a modification of the method described by Robinson, M. B., et al., (Brain Res., 544: 196-202, 1991). The tissues of cerebellum or of other regions of the brain of male rats of the Sprague-Dawley breed are homogenized in a sucrose solution (0.32 M) at 4° C. and then centrifuged at 800 g for 10 minutes. The supernatant is then recentrifuged at 20,000 g for 20 minutes. The centrifugation pellet obtained is resuspended in an identical sucrose solution and then centrifuged again at 20,000 g for 20 minutes. The synaptosomes are contained in this second centrifugation pellet. They are suspended and used immediately for measuring glutamate uptake. This is monitored with the aid of tritium-labelled glutamate ([^3 H]glutamate) diluted in a solution of nonradioactive glutamate. After 3 minutes of incubation at 37° C., the synaptosomes are separated from the incubation medium by filtration. […] This radioactivity is proportional to the glutamate uptake. The results are expressed as specific uptake, that is to say the uptake which depends on the presence of sodium ions in the incubation medium. It can be distinguished from the nonspecific uptake which corresponds to the radioactivity measured after equimolar replacement of sodium chloride in the incubation medium with choline chloride. The specific uptake corresponds to the total radioactivity minus the radioactivity measured in the presence of choline chloride.
The data are the mean values±SEM of n=8 independent observations.

Nc1nc2ccc(OC(F)(F)F)cc2s1 [riluzole, 2-amino-6-trifluoromethoxybenzothiazole]
dependence of the increase in glutamate uptake on the age of the rats (cerebellum, postnatal period to adult age, stable after about 10 weeks): increases with the age of the rats | uptake of radioactive glutamate (result in words) (rat cerebellar synaptosomes, increasing concentrations of riluzole (FIG. 1)): increased in a concentration-dependent manner | maximum increase in glutamate uptake (rat cerebellar synaptosomes, specific uptake, n=8, 3 min): ~40 % of the control values
